Where two headings read alike, the source gives them in different places.
Key:
Wistar rat heart PBR = Wistar rat heart PBR (Rattus norvegicus (Rat), UniProt P16257); test: In vitro potency assay: competition for binding to PBR against 0.3 nM [3H]-PK-11195
Experimental: The reaction was carried out in 50 mM Tris-HCl, pH 7.4 10 mM MgCl2 for 15 minutes at 25° C.

PBR [1] = target: T1, PBR (Rattus norvegicus (Rat), UniProt P16257); test: Autoradiography using facial nerve axotomy (FNA) model; assay type: in vivo; conditions: facial nucleus, 30 minutes after injection
Experimental: For in vivo studies, male Wistar rats (180-200 g) were used. Under Isoflurane anaesthesia, the hair from the right side of the auricular region was removed. An infraauricular incision was made and the main trunk of the facial nerve identified. The facial nerve was severed behind the ear at the exit from the stylomastoid foramen. The wound was sutured and animals left to recover. Seven days post-surgery animals were injected with ˜5-10 MBq in vivo imaging agent 1 via the lateral tail vein. Animals were killed 30 minutes later and brain stem removed and frozen in isopentane. Cryostat sections (12 μm) of brainstem containing both facial nuclei were mounted on glass slides and exposed to phosphor screen overnight.
Screens were then scanned on the Storm (GE Healthcare) phosphor-imager and the resultant scan was analysed and quantified using ImageQuant TL (GE Healthcare).

PBR [2] = target: T1, PBR; test: In vivo biodistribution, olfactory bulb:striatum uptake; conditions: 18F-labelled agents, adult male Wistar rats, lateral tail vein, 30 min post-injection
Experimental: In vivo imaging agents 1-7 as prepared in Examples 7, 8 and 9 above were tested in the in vivo biodistribution model and their biodistribution compared to that of the prior art compound [^18F]FE-PBR (prepared according to Example 14 of WO 2007/057705).
Adult male Wistar rats (200-300 g) were injected with 1-3 MBq of each in vivo imaging agent via the lateral tail vein. At 2 10,30 or 60 min (n=3) after injection, rats were euthanised and tissues or fluids were sampled for radioactive measurement by liquid scintillation counting.

[3] = non-radioactive analogues, Wistar rat heart PBR, vs 0.3 nM [3H]-PK-11195, 15 minutes at 25° C., read-out: Ki

Row | Compound | Ki (Wistar rat heart PBR; [3]) [nM] | OB:Striatum @ 30 min (PBR [2]) | Average intensity in the lesioned side (PBR [1]; lesioned side, seven days post-surgery) | Average intensity in the non-lesioned side (PBR [1]; non-lesioned side) | Ki (Wistar rat heart PBR) [nM]
1 | CCN(CC)C(=O)C1Sc2ccccc2-c2c1c1cc(OC)ccc1n2CCF (racemic) [Imaging Agent 1, (+-)-11-(2-fluoroethyl)-8-methoxy-6,11-dihydro-5-thia-11-aza-benzo[a]fluorene-6-carboxylic acid diethyl amide] | 0.37 |  | 7.75±0.95 | 3.73±0.36 | 
2 | (+-)-11-(2-fluoroethyl)-10-methoxy-6,11-dihydro-5-thia-11-aza-benzo[a]fluorene-6-carboxylic acid diethyl amide [Imaging Agent 3] | 0.4 | 3.50 |  |  | 
3 | CCN(CC)C(=O)C1Sc2ccccc2-c2c1c1ccccc1n2CC[18F] (stereo not shown) [[^18F]FE-PBR, reference compound] |  | 1.42 |  |  | 0.68

Now from value to compound, other results behind:

Row | Ki (Wistar rat heart PBR; [3]) [nM] | OB:Striatum @ 30 min (PBR [2]) | Compound | Average intensity in the lesioned side (PBR [1]; lesioned side, seven days post-surgery) | Average intensity in the non-lesioned side (PBR [1]; non-lesioned side) | Ki (Wistar rat heart PBR) [nM]
4 | 0.52 | 2.67 | CCOc1ccc2c(c1)c1c(n2CCF)-c2ccccc2SC1C(=O)N(CC)CC (stereo not shown) [compound 6] |  |  | 
5 | 0.93 | 2.00 | (+-)-4-fluoro-11-(2-fluoroethyl)-6,11-dihydro-5-thia-11-aza-benzo[a]fluorene-6-carboxylic acid diethyl amide [Imaging Agent 4] |  |  | 
6 | 1.09 | 2.42 | CCN(CC)C(=O)C1Sc2ccccc2-c2c1c1c(OC)cccc1n2CCF (stereo not shown) [compound 7] |  |  | 
